{"source": "patent US6716849B1", "about": "“Substituted phenylcyclohexane carboxylic acid amides that have an adenosine uptake inhibiting effect” (Bayer Aktiengesellschaft, priority 2001, dated 2004)", "key": {"[1]": {"assay": "Determination of the solubility (precipitation method, physiological saline, HPLC)", "format": "physicochemical", "settings": "saline or isotonic, kinetic from dmso stock, 25° C., 24 hours equilibration", "procedure": "1. Determination of the Solubility\nTo determine the solubility, a precipitation method was used:\n10 mg of the test substance are completely dissolved in 50 μl of DMSO (stock solution). 20 μl of this solution are added to 2000 μl of physiological saline. This solution, in turn, is shaken at 25° C. in a Thermomixer Comfort (from Eppendorf) at 1400 rpm for 24 hours for equilibration.\nThe precipitated fractions of the test substance are centrifuged off using a Biofuge 15 from Heraeus at 14,000 rpm for 5 min. 1300 μl of the supernatant are once more centrifuged using a Microfuge from Beckmann at 45,000 rpm=125,000 g.\n10 μl of this centrifigation supernatant are then diluted with 1000 μl of DMSO, and this solution is measured by HPLC (Hewlett Packard 1090, method, gradient from 100% PBS buffer pH=4 to 10% buffer/90% acetonitrile over a period of 15 min, column: RPI8; PBS buffer pH=4 is a physiological saline solution adjusted to pH=4 using phosphate buffer).\nUsing a calibration curve, the measured peak area of the HPLC measurement is converted into substance concentration. For the calibration curve, 20 μl of the stock solution are diluted successively with DMSO such that 5 concentrations of 2.5 mg/l to 2000 mg/l result. These solutions are likewise measured by HPLC (see method above), and the peak areas are plotted as a function of the concentrations."}, "[2]": {"biological_target": "T1, adenosine transport protein from calf cortex (Bos taurus, UniProt A0ACM8Q8F7)", "T1 construct": "a membrane preparation of cerebral calf cortex is used, which expresses the relevant adenosine transporter; from tissue; host or cells: cerebral calf cortex, membrane preparation", "T1 sequence (A0ACM8Q8F7 1-456)": "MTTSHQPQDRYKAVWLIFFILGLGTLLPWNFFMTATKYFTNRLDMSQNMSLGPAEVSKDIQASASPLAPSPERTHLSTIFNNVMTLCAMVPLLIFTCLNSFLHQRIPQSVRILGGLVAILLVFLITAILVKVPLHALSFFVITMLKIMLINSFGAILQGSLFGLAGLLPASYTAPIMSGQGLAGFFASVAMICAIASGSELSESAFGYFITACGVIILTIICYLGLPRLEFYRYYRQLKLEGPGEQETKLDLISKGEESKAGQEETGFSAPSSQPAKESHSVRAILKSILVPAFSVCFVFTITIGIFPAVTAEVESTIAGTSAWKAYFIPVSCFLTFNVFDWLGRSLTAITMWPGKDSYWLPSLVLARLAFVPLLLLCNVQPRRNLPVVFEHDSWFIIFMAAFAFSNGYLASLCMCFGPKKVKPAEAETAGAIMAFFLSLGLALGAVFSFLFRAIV", "assay": "Binding to an adenosine transport protein from calf cortex (displacement of radio-labelled NBTI)", "settings": "membrane preparation of cerebral calf cortex, read-out: Ki, inhibition of NBTI-binding", "description": "2. Binding of the Compounds According to the Invention to an Adenosine Transport Protein From Calf Cortex\nThe ability of substances to influence the adenosine uptake system is investigated firstly by determining the binding affinity of selected substances to an adenosine transport protein of the CNS and secondly by determining the inhibiting effect of the substances on functional adenosine uptake.\nFor the binding test, a membrane preparation of cerebral calf cortex is used, which expresses the relevant adenosine transporter. The binding affinity (Ki value) is determined by measuring the displacement of a specific radio-labelled ligand [nitrobenzylthioinosine (NBTI)] from the binding site in question by test substances. The binding site is the binding site on the transport protein which is relevant for the actual transport process. Thus, binding of test substances in this experiment results in a quantifiable release of bound radioactive NBTI which makes determination of the Ki value possible. (J. Neurochemistry 1982,39, 184-191)."}, "[3]": {"system": "transient occlusion of the middle cerebral artery (tMCA-O)", "assay": "tMCA-O: transient occlusion of the middle cerebral artery, infarct volume", "format": "in vivo", "settings": "rat tMCA-O, 0.001 mg/(kg×h) i.v. infusion, begun at start of reperfusion, evaluated after 2 days", "procedure": "The neuroprotective activity of the compounds according to the invention was determined in the animal model of transient occlusion of the middle cerebral artery (tMCA-O) and the subdural haematoma (SDH). […] Under general anaesthesia (inhalation anaesthesia with isoflurane), the hairs in the lower anterior neck region are shaved off, in the dorsal position, the head is fixed, the skin is disinfected and the neck area is opened in the middle along the trachea. The right lateral neck muscles are severed bluntly and, together with the skin, pulled to the side (retractors) so that the common carotid artery is clearly visible. The common carotid artery is exposed towards the head up to the point where it branches into the internal carotid artery and the external carotid artery. Using surgical suture material, the common carotid artery (near the thorax) and the external carotid artery are tied off. Using a microclamp; the internal carotid artery is closed temporarily. […] After 2 days of post-operative survival, the volume of the cerebral infarct is determined with the aid of a computer-supported image analysis system using preproduced series of histological brain sections. The size of the infarct is evaluated differentially by cortex, striatum, hippocampus and other brain areas."}, "[4]": {"system": "subdural haematoma (SDH)", "assay": "Subdural haematoma in rats (SDH), infarct volume", "format": "in vivo", "settings": "rat SDH, 0.001 mg/(kg×h) i.v. infusion", "procedure": "The neuroprotective activity of the compounds according to the invention was determined in the animal model of transient occlusion of the middle cerebral artery (tMCA-O) and the subdural haematoma (SDH). 5. Subdural Haematoma in Rats (SDH) This rodent model (rat) imitates pathophysiology and cerebral pathology of the blunt skull-brain trauma with subdural hemorrhage and development of a subdural haematoma in man. (Neurosurgery 190, 27,433-439). Under anaesthesia, the animals are unilaterally injected subdurally with their own blood. Under the haematoma, an infarct forms. The substance is administered according to different schedules and via different administration routes (i.v., i.p.). The size of the infarct is determined as described in the model of the transient focal ischaemia in rats (tMCA-O)."}}}
{"smiles": "CN1CCN(c2nc3ccccc3n2Cc2ccc([C@@H]3CCCC[C@H]3C(=O)N[C@H](C(N)=O)c3ccccc3)cc2)CC1", "note": "[Example 5, (S)-N-{{(1R,2R)-2-{4-{[2-(4-Methyl-piperazin-1-yl)benzimidazol-1-yl]methyl}-phenyl}-cyclohex-1-yl}carbonyl}-phenylglycinamide]", "values": [{"measurement": "solubility at 24 h", "setting": "[1]", "value": 16, "unit": "µg/mL"}, {"measurement": "Ki", "setting": "[2]", "value": 2, "unit": "nM"}, {"measurement": "reduction of the infarct volume in comparison to control animals", "setting": "[3]", "value": 91, "unit": "%"}]}
{"smiles": "Cl.NC(=O)[C@@H](NC(=O)[C@@H]1CCCC[C@H]1c1ccc(Cn2c(CN3CCOCC3)nc3ncccc32)cc1)c1ccccc1", "note": "[Example 4, (S)-N-{{(1R,2R)-{4-{2-[2-(Morpholin-4-yl-methyl)-1H-pyrido[2,3-d]imidazol-1-yl]methyl}-phenyl}-cyclohex-1-yl}carbonyl}-phenylglycinamide hydrochloride]", "values": [{"measurement": "reduction of the infarct volume in comparison to control animals", "setting": "[4]", "value": 45, "unit": "%"}]}
{"smiles": "NC(=O)[C@@H](NC(=O)[C@@H]1CCCC[C@H]1c1ccc(Cn2c(CN3CCOCC3)nc3cccnc32)cc1)c1ccccc1", "note": "[Example 3]", "values": [{"measurement": "solubility at 24 h", "setting": "[1]", "value": 176, "unit": "µg/mL"}, {"measurement": "Ki", "setting": "[2]", "value": 2, "unit": "nM"}, {"measurement": "reduction of the infarct volume in comparison to control animals", "setting": "[4]", "value": 30, "unit": "%"}, {"measurement": "reduction of the infarct volume in comparison to control animals", "setting": "[3]", "value": 81, "unit": "%"}]}
